Each structure is given as a SMILES string.

Series [1] has as its system mice. The conditions noted are these: cited from earlier work.
Series [2] deals with mice. The conditions noted are these: administering SA in mice; cited from earlier work.
The test system of a further series is daf-16(mu86). Briefly: Longevity assay, daf-16 gene knockout mutant strain. The note with it: SA from day 1 of adulthood; P<0.01 versus vehicle control. Type of series: in vivo, C. elegans. The method, then: C. elegans strains were cultured at 20° C. on standard nematode growth media (NGM) agar plates seeded with Escherichia coli strain NA22. The following strains were used in this work: wild-type C. elegans Bristol strain (N2), sir-2.1(ok434) IV, F19F10.5(ok888) V, and daf-16(mu86). Strains were obtained from the Caenorhabditis Genetics Center (University of Minnesota, St. Paul, Minn.). For generating cultures of 15-day-old (Day 15) adult worms, synchronized late-stage L4s/early young adult worms were transferred to peptone enriched 15 cm plates containing UV-irradiated OP50 E. coli and 0.12 mM 5-fluoro-2′-deoxyuridine (FUDR) to inhibit progeny production[88] with or without drug until harvest.
Survival cultures were grown on 60-mm agar plates; after the late-stage L4/young adult molt, approximately 100 adults were transferred onto SA-OP50-seeded NGM plates. Salicylamine drug plates were made fresh before transfer by spreading SA on top of the agar. […] Worms were maintained at 20° C. and live worms were counted during transfer to freshly made SA-OP50-NGM agar plates every 2-3 days. Survival was scored as movement upon slight touch with the platinum wire. […]
FIG. 7 (S1). […] Survival was assessed every 2 days until all the worms died. […] Data are expressed as means±SEM from four independent experiments. *P<0.01 as compared to vehicle control.

In series [3] the test system is mice. The note with it: administering SA in mice; cited from earlier work. This is another data set of the same source.
For series [4], the system named is VC199 non-functional SIR-2.1 mutants. The experiment in a line: Real-time RT-PCR of ets-7, VC199. Type of series: in vivo, C. elegans. The note with it: highest dose of SA, Day 15 VC199; p<0.01. From the text: First, to validate the microarray results, the present inventors performed real-time RT-PCR on four genes, siah-1, sma-4, F13D12.6, and ets-7 (FIG. 6B). […] Messenger RNA levels for siah-1 and sma-4 were decreased by nearly 25%, as well as F13D12.6 and ets-7 were increased by nearly 25% by SA administration (p<0.05). Pathway Analysis using Gene Ontology (GO) with WEB-based Gene SeT Analysis Toolkit (WEBGESTALT <http://bioinfo.vanderbilt.edu/webgestalt/>) highlighted the metabolic process, lipid metabolic process, proteolysis pathways among many others as being altered favorably by the administration of SA (see Supplemental Data). From the array data confirmed by RT-PCR, the present inventors identified the ETS class transcription factor ETS-7 as a protein of interest. ETS factors are known to be involved in regulating lipid metabolism and regulate lifespan in both Drosophila melanogaster and C. elegans. […] In order to test this, the present inventors carried out real-time RT-PCR quantification of ets-7 in non-functional SIR-2.1 mutant nematodes treated with increasing doses of SA (FIG. 6E).
Total RNA was isolated via the Trizol method, as described previously. […] Quantitative real time PCR (Bio-Rad) was conducted using TaqMan Gene Expression Assay Probes (Life Technologies) for each gene. […]

For the next series, the system named is N2 WT C. elegans. Briefly: Oxygen consumption rate of whole worms, N2. Type of series: in vivo. The conditions noted are these: whole worms over several days; p>0.05. From the text:
Mitochondria lie at the center of aging biology, playing crucial roles in energy production, carbon substrate metabolism, apoptosis regulation, and redox balance and signaling. Since sirtuins play a major role in regulating mitochondrial function, the present inventors next wanted to investigate whether SA was exerting any of its effects via protection of mitochondrial processes. To investigate SA's effects on mitochondrial respiration, the present inventors administered SA to WT N2 (FIG. 5A) and non-functional SIR-2.1 mutant worms (FIG. 5B) and measured oxygen consumption rate (OCR) in whole worms over several days. […] The present inventors also examined the effect of SA treatment on mitochondrial DNA (mtDNA) integrity.
Oxygen consumption rate for whole C. elegans was measured using a Seahorse Bioscience XF^e96 Analyzer. Worms were harvested from Day 0, 2, and 15 colonies maintained on FUDR containing SA-OP50-seeded NGM plates by washing in M9 medium, followed by floatation on an ice-cold 60% w/v sucrose gradient to segregate clean bacteria-free adult worms from bacterial debris. Worms were seeded at 1,000 worms/well in M9. After 20 min equilibration, a 2-min measurement was performed to obtain basal OCR for all experimental conditions and strains.

For `NCc1ccccc1O` [SA, salicylamine], the “tolerability, adverse events” value in the series with mice [1] (approximately one year, via drinking water) is “no evidence of intolerance and no evidence of excess adverse events”. Also, the tumor formation result in the series with mice [1] (long-term SA treatment) is “No excess tumor formation”. Also, in the series with mice [2], the “development of angiotensin II-induce hypertension” value is “prevents”. In the series with daf-16(mu86), the “maximum and median lifespan” value was “increased maximum and median lifespan”. Moreover, in the series on mice [3], the “age-related loss of working memory” value is “prevents the age-related loss of working memory”. In addition, the “increase in ets-7 mRNA expression” value in series [4] was 442%. In addition, the “mitochondrial oxygen consumption rate (OCR)” value in the series with N2 WT C. elegans is listed as “no effect”.

The values are drawn from US11633370B2, “Use of scavengers of reactive gamma-ketoaldehydes to extend cell lifespan and healthspan” (Vanderbilt University, priority 2016, dated 2023).
